Measured values published in patent publication US9382222B2, “Benzyl sulfonamide derivatives as RORc modulators” (Genentech, Inc., priority 2012, dated 2016).

The molecules below were run against T1, RORc ligand binding domain (Homo sapiens, UniProt P51449) (assay: In Vitro RORc Ligand Binding Assay). Conditions: displacement of 25-[3H]hydroxycholesterol (6 nM), 0.6 ug/mL RORc receptor, 3 h at 25° C.
T1 construct: host or cells: E. coli
T1 sequence (P51449 269-508 limits assumed): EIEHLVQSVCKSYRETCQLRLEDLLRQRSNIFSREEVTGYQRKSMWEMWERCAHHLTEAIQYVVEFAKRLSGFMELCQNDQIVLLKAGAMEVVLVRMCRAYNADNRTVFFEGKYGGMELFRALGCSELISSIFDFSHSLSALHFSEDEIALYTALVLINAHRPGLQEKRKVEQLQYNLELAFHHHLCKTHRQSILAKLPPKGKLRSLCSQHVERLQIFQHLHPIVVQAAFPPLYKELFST
Experimental: In Vitro RORc Ligand Binding Assay This assay was used to determine a compound's potency in inhibiting activity of RORc by determining, Kiapp, IC50, or percent inhibition values. […] On day of the assay, 100 uL of 0.05% CHAPS (in deionized H2O) was added to all wells of the GFB Unifilter plate and allowed soak for 1 h. A wash buffer of 50 mM HEPES (pH 7.4), 150 mM NaCl, and 5 mM MgCl2 was prepared to wash the filter plate. To prepare an assay buffer, BSA was added to the wash buffer to reach 0.01% and DTT was added to reach 1 mM. […] The 20× compound stocks were diluted in DMSO with Assay Buffer 4-fold to reach 5× the final test concentration in 25% DMSO (10 uL compound+30 uL Assay Buffer). Solutions were mixed by aspiration several times with a pipette set on 50 uL volume. For the assay, 10 uL of 5× compound stock solutions in 25% DMSO were added to the assay plate in duplicate. For two point screening, 10 mM stock compound solutions were diluted in DMSO to obtain 200 uM (20× the high test concentration) and then diluted 10-fold further to reach 20 uM (20× the low test concentration). The 20× stocks were diluted 4-fold with Assay Buffer (10 uL compound+30 uL Assay Buffer) to reach 5× the test concentrations (50 uM and 5 uM) and 10 uL were added to two assay plates for the duplicate wells. […] Add 20 uL to all wells to reach 6 nM final concentration in the assay. […] Stock receptor solution was diluted in assay buffer to obtain 1.5 ug/mL in Assay Buffer. 20 uL was added to all wells. For No Receptor samples, 20 uL Assay Buffer was substituted for receptor solution. […] Following addition to the wells, the plates were incubated 3 h at 25° C. Using a Packard Filtermate Harvester, the filter plate were washed 4 times following transfer of the incubated samples. Plates were dry-filtered completely (2 h at 50° C. or overnight at room temperature). 50 uL Microscint 0 was added to all wells and read on Topcount protocol Inverted. […] For NSB wells, 1 uM 25-hydroxycholesterol was also present.

Compound | IC50 [nM]
CC(=O)N1CCN(c2ccc(S(=O)(=O)N(Cc3ccccc3C(F)(F)F)C(C)(C)C)cc2)CC1 [Compound 81, 4-(4-Acetyl-piperazin-1-yl)-N-tert-butyl-N-(2-trifluoromethyl-benzyl)-benzenesulfonamide] | 110
CC(C)CN(c1cccc(Cl)c1)S(=O)(=O)c1ccc(NC2CCN(S(C)(=O)=O)CC2)cc1 [Compound 32, N-(3-Chloro-phenyl)-N-isobutyl-4-(1-methanesulfonyl-piperidin-4-ylamino)-benzenesulfonamide] | 7
CC(=O)N1CCN(c2ccc(S(=O)(=O)N(c3cccc(Cl)c3)C3CCC3)cc2)CC1 [Compound 30, 4-(4-Acetyl-piperazin-1-yl)-N-(3-chloro-phenyl)-N-cyclobutyl-benzenesulfonamide] | 149
CC(C)CN(c1ccccc1Cl)S(=O)(=O)c1ccc(N2CCC(NS(C)(=O)=O)CC2)cc1 [Compound 24, N-(2-Chloro-phenyl)-N-isobutyl-4-(4-methanesulfonylamino-piperidin-1-yl)-benzenesulfonamide] | 128
CC(C)CN(c1cccc(Cl)c1)S(=O)(=O)c1ccc(NC2CCN(C(N)=O)CC2)cc1 [Compound 36, 4-{4-[(3-Chloro-phenyl)-isobutyl-sulfamoyl]-phenylamino}-piperidine-1-carboxylic acid amide] | 66
CC(C)CN(c1ccccc1C(F)(F)F)S(=O)(=O)c1ccc(NC2CCN(S(C)(=O)=O)CC2)cc1 [Compound 46, N-Isobutyl-4-(1-methanesulfonyl-piperidin-4-ylamino)-N-(2-trifluoromethyl-phenyl)-benzenesulfonamide] | 33
CC(=O)N1CCN(c2ccc(S(=O)(=O)N(CC(F)(F)F)c3cccc(Cl)c3)cc2)CC1 [Compound 37, 4-(4-Acetyl-piperazin-1-yl)-N-(3-chloro-phenyl)-N-(2,2,2-trifluoro-ethyl)-benzenesulfonamide] | 305
CC(C)CN(Cc1ccccc1C(F)(F)F)S(=O)(=O)c1ccc(N2CCC(C(N)=O)CC2)cc1 [Compound 83, 1-{4-[Isobutyl-(2-trifluoromethyl-benzyl)-sulfamoyl]-phenyl}-piperidine-4-carboxylic acid amide] | 24
CC(=O)N1CCN(c2ccc(S(=O)(=O)N(CC(C)C)c3ccccc3C(F)(F)F)cc2)CC1 [Compound 41, 4-(4-Acetyl-piperazin-1-yl)-N-isobutyl-N-(2-trifluoromethyl-phenyl)-benzenesulfonamide] | 28
CN(C)S(=O)(=O)N1CCN(c2ccc(S(=O)(=O)N(Cc3ccccc3C(F)(F)F)C(C)(C)C)cc2)CC1 [Compound 82, 4-{4-[tert-Butyl-(2-trifluoromethyl-benzyl)-sulfamoyl]-phenyl}-piperazine-1-sulfonic acid dimethylamide] | 51
CC(C)CN(c1cccc(F)c1F)S(=O)(=O)c1ccc(OC2CCN(S(C)(=O)=O)CC2)cc1 [Compound 49, N-(2,3-Difluoro-phenyl)-N-isobutyl-4-(1-methanesulfonyl-piperidin-4-yloxy)-benzenesulfonamide] | 8
CC(C)CN(c1c(F)cccc1F)S(=O)(=O)c1ccc(OC2CCN(S(C)(=O)=O)CC2)cc1 [Compound 52, N-(2,6-Difluoro-phenyl)-N-isobutyl-4-(1-methanesulfonyl-piperidin-4-yloxy)-benzenesulfonamide] | 11
